Measurements: patent US7695426B2, “Methods for enhancing viability” (Biological Resources Pty Ltd, priority 2003, dated 2010)

Columns and labels:
[1] = test system: mouse embryos; assay: Co-treatment of embryos in vitro with PAF and PFT-α; assay type: cell-based; details: zygotes cultured 96 h; 10 nM PAF, 10 μM PFT-α or both
[2] = test system: 2-cell embryos; assay: Intracellular calcium response of embryos to exogenous PAF; assay type: cell-based, mouse; details: IVF embryos in comparison to fresh and ISF embryos
Protocol: Mammalian embryos express a receptor for PAF, and activation of this receptor elicits a transient increase in the embryo's intracellular calcium concentration (Emerson et al., 2000, Journal of Biological Chemistry 275, 21905-21913; Lu et al., 2003, Biology of Reproduction 69, 106-116).
Mouse embryos were incubated with exogenous PAF and the intracellular Ca^2+ concentration was determined as described by Emerson et al. (2000). Embryos tested were: (i) those fertilized in the reproductive tract and collected fresh from the reproductive tract (fresh); (ii) embryos produced by IVF and cultured in vitro (IVF); and (iii) embryos fertilized in the reproductive tract and cultured in vitro (ISF). […] This reduced signaling correlated with poor development of the embryos in vitro.

[3] = test system: p53 mRNA; assay: RT-PCR of p53 mRNA in embryos incubated in α-amanitin; assay type: cell-based, mouse
Excerpt: RT-PCR was used to compare the expression of p53 mRNA in fresh p53+/+ mouse embryos (embryos fertilised and grown in the reproductive tract) and IVF mouse embryos. For IVF embryos, the model uses a graded range of stress induced by IVF and culture under conditions of increasing growth factor deprivation. Primers were designed (5′-GGAGTCTTCCAGTGTGATGAT, 3′-GGG ACA GCC MG TCT GTT ATG) that successfully produced an RT-PCR product of the correct size (429 bp) and sequence (SUPAMAC) for the p53 gene. Groups of 5 embryos, oocytes or sperm were pooled. mRNA was extracted and RT-PCR performed.
p53 product was detected in oocytes, zygotes, 8-cell, morulae and blastocyst stage mouse embryos collected from the reproductive tract but not in epididymal sperm. In 2-cell embryos detection was variable. […] Quantitative RT-PCR of p53 was performed to compare expression of p53 mRNA in fresh and IVF embryos. Equivalent levels of RNA were found in the oocyte, zygote, morulae and blastocyst of fresh embryos; the levels were 50-70% lower in late 2-cell embryos than in other development stages (data not shown).

[4] = test system: mouse embryos; assay: Combined treatment of IGF-II and PFT-α on embryo development in vitro; assay type: cell-based; details: IVF zygotes cultured 96 h, 10 ng/ml IGF-II, 1 μM PFT-α, or both; for Cells/blastocyst: control 23 ± 4; for % blastocyst: control 31
Protocol: The IGF-II used was human recombinant insulin-like growth factor-II (expressed in E. Coli) (Sigma Chemical Co.), reconstituted with a minimal volume of 0.1M acetic acid and immediately diluted with modified-HTF to a concentration of 50 μg/ml. Aliquots were frozen at −70° C. Upon thawing, aliquots were serially diluted with modified-HTF.
Zygotes produced by IVF from F1 crosses were prepared and cultured as described above, with 1 embryo per […] drop of media. Zygotes were cultured for 96 h in modified HTFM medium individually in 10 μl drops. The proportion of embryos developing to morphologically normal blastocysts, the number of cells in each blastocyst and the number of apoptotic cells per blastocyst were assessed in media containing 10 ng/ml IGF-II, 1 μM PFT-α, or IGF-II+PFT-α.

[5] = test system: bovine sperm; assay: Treatment of bovine sperm with PFT-α before insemination, blastocyst formation; assay type: cell-based; details: bovine sperm incubated 1 h with 0.3-3 μM PFT-α before insemination; Day 7; compared to control
Protocol: All embryo manipulations were performed at 39° C. except for oocyte harvesting and activation which was performed at room temperature. All procedures were performed in 4-well Nunc dishes in Tissue Culture Medium 199 (TCM-199) supplemented with HEPES (TCM-H TCM-199; Gibco™ BRL/Life Technologies, Melbourne, Victoria, Australia) without mineral oil overlay, unless otherwise indicated.
Bovine ovaries collected from 2 different local slaughterhouse, transported at 30-35° C. to the laboratory and washed on 39° C. physiologic saline (0.9% NaCl; Baxter Healthcare Pty., Ltd., NSW, Australia). Ovarian antral follicles (2-8 mm) were aspirated using an 18-gauge needle and collected into TCM-H with 30 IU ml^−1 heparin (Pharmacia & Upjohn Pty., Ltd., Perth, Wash., Australia) and 2% gamma radiated fetal bovine serum (FBS; JRH Biosciences Pty., Ltd., Melbourne, Victoria, Australia). Cumulus oocyte complexes (COCs) showing an even cytoplasm and surrounded by at least three layers of compact cumulus cells were collected from the follicular fluid. […]
Frozen/thawed semen from an elite bull was placed on a Percoll gradient and centrifuged at 600×g for 20 minutes. The top layers were removed and the sperm concentration and motility of the pellet determined. […]
The proportion of blastocysts were determined on Day 7 (Day 0=fertilization). […]

[6] = test system: sperm and oocytes; assay: Treatment of mouse gametes with PFT-α during capacitation and fertilisation in vitro; assay type: cell-based
Protocol: (§1) Mouse IVF: Females superovulated by 5 IU pregnant mare serum gonadotrophin followed 48 h later by 5 IU human chorionic gonadotrophin. Oocytes were collected 13-15 h after hCG and washed. Epididymal sperm collected from the epididymides of male mice (14-35 weeks old) of proven fertility is immediately placed into 1 ml of medium. Sperm were allowed to disperse for 10 min at 37° C. and were then added to the oocytes at 0.1×10^6/ml. Fertilisation was performed in a final volume of 1 ml of medium. Oocytes and sperm were cultured together for 5 h at 37° C. in 5% CO2 in air. The oocytes were then retrieved, washed in Hepes-buffered HTF and their fertilisation status assessed by microscopic detection of pronuclei and polar bodies. Fertilised oocytes were transferred to drops of modified HTF medium under mineral oil and their development status assessed each 24 h.
PFT-α preparation, IVF and embryo culture was as previously described. The study used F1 (C57Bl6j×CBAj) males and females. PFT-α was added to sperm during its capacitation and during the process of fertilisation in vitro.
4-5 h after the addition of sperm to oocytes, the oocytes were washed free of sperm and PFT-α. They were examined for the presence of 2 pronuclei as evidence of successful fertilisation. Successfully fertilised oocytes were placed in culture in 10 μL of modified HTF media, 1 zygote per 10 μL drop. They were culture for 120 h and the proportion forming morphologically normal blastocysts were recorded. The blastocysts were fixed in 2% formaldehyde and stained with 5 μG Hoechst stain/ml. […]
The effect of dose of PFT-A on the proportion of oocytes fertilised, the proportion of zygotes that developed to morphological blastocyst and the number of cells in each blastocysts were recorded and are shown in FIGS. 4A, B and C respectively. The effect of PFT-A dose was assessed using the SPSS statistical package. The fertilisation rate and development rate were assessed using binary logistic regression analysis while cell numbers were assessed by univariate analysis using the general linear model.

[7] = test system: mouse embryos; assay: Culture of mouse zygotes (IVF or ISF) with PFT-α as media supplement; assay type: cell-based
Protocol: as §1
A recently developed selective inhibitor of p53, pifithrin-α (PFTα [2-(2-imino-4,5,6,7-tetrahydrobenzothiazol-3-yl)-1-p-tolylethanone], Sigma-Aldrich), is a small molecule that reversibly blocks p53-dependent transcriptional activation and apoptosis (Komarov et al., 1999, Science 285, 1733-1737). PFT-α was prepared initially by solubilising to a concentration of 10 mM in dimethylsolfoxide and diluted to working concentrations.
Zygotes were produced by either fertilization in vitro (IVF) or fertilisation in situ (ISF) and cultured for 96 hours in modified HTFM medium individually in […] drops. PFT-α was added as a media supplement over the dose range […]. The proportion of embryos developing to the blastocyst stage (FIG. 3A), the number of cells per normal blastocyst and the proportion of cells undergoing apoptosis (FIG. 3B), were assessed.

[8] = gametes treated with PFT-α, zygotes cultured 120 h, P<0.05

## 1 hexadecyl/octadecyl-2-acetyl-sn-glyceryl-3-phosphocholine [PAF]
[1]
  embryo viability as proportion of embryos that developed to the blastocyst stage: increase in embryo viability
[2]
  proportion of 2-cell IVF embryos that responded to exogenous PAF (intracellular calcium): substantially reduced

## CC[C@H](C)[C@@H]1NC(=O)CNC(=O)[C@@H]2Cc3c([nH]c4cc(O)ccc34)[S+]([O-])C[C@@H](NC(=O)CNC1=O)C(=O)N[C@@H](CC(N)=O)C(=O)N1C[C@H](O)C[C@H]1C(=O)N[C@@H]([C@@H](C)[C@@H](O)CO)C(=O)N2 (stereo in doubt) [α-amanitin]
[3]; 2-cell embryos incubated in α-amanitin, after 24 h
  p53 mRNA in embryos after incubation from the 2-cell stage: p53 mRNA negative
[3]; zygotes incubated in α-amanitin
  qualitative expression of p53 RNA in zygotes: no effect

## Cc1ccc(C(=O)Cn2c3c(sc2=N)CCCC3)cc1 [PFT-α, 2-(2-imino-4,5,6,7-tetrahydrobenzothiazol-3-yl)-1-p-tolylethanone]
[1]
  embryo viability as proportion of embryos that developed to the blastocyst stage: increase in embryo viability
[4]
  Cells/blastocyst: 32 ± 4
  % blastocyst: 44%
[5]
  proportion of resulting embryos that developed to morphological blastocysts: significant positive effect
[6]; PFT-α present during sperm capacitation and IVF, P<0.01
  fertilisation rate (proportion of oocytes fertilised): dose-dependent increase
[6]; [8]
  mean number of cells present in each embryo (blastocyst): dose-dependent significant increase
  proportion of zygotes that developed to the blastocyst stage: further dose-dependent increase
[7]; IVF zygotes cultured 96 h individually, PFT-α dose range 0.1-20 μM
  proportion of IVF embryos that developed to the blastocyst stage: significant quadratic effect
[7]; between 0.1 and 20 μM added to embryos in culture
  embryo survival: significant effect on increasing embryo survival
[7]; both ISF and IVF zygotes, cultured 96 h, PFT-α dose range 0.1-20 μM
  number of cells per normal blastocyst: significant improvement
[7]; both ISF and IVF zygotes, cultured 96 h, PFT-α dose range 0.1-20 M (so in the source)
  number of cells undergoing apoptosis: significant decrease

## IGF-II: human recombinant insulin-like growth factor-II (expressed in E. Coli), Sigma Chemical Co.
[4]
  Cells/blastocyst: 29 ± 2
  % blastocyst: 42%
